In US20150296788A1, “PESTICIDALLY ACTIVE TRICYCLIC PYRIDYL DERIVATIVES” (SYNGENTA PARTICIPATIONS AG, priority 2012, published 2015) one finds mortality data, which are given here for four molecules.

What is called mortality is the share of the test organisms that died. High values mean fewer survivors, low ones more survivors.

Assay type in all cases: in vivo
Assay [1] relates to Bemisia tabaci (Cotton White Fly). Nature of the assay: Activity against Bemisia tabaci (cotton white fly), leaf disc, feeding/residual contact, preventive. The conditions noted are these: foliar, 144 h, cotton leaf discs sprayed, 12 to 18 adults, 6 days after infestation. Here is the method: Activity Against Bemisia tabaci (Cotton White Fly)
(Feeding/Residual Contact Activity, Preventive)
Cotton leaf discs were placed on agar in a 24-well microtiter plate and sprayed with test solutions. After drying, the leaf discs were infested with 12 to 18 adults. After an incubation period of 6 days after infestation, samples were checked for mortality and special effects (e.g. phytotoxicity).

The test system of assay [2] is Myzus persicae (Green Peach Aphid). Nature of the assay: Activity against Myzus persicae (green peach aphid), leaf disc, feeding/residual contact, preventive. The settings on record: foliar, 144 h, sunflower leaf discs sprayed, mixed-age aphid population, 6 days incubation. Here is the method: Activity Against Myzus persicae (Green Peach Aphid)
(Mixed Population, Feeding/Residual Contact Activity, Preventive)
Sunflower leaf discs were placed on agar in a 24-well microtiter plate and sprayed with test solutions. After drying, the leaf discs were infested with an aphid population of mixed ages. After an incubation period of 6 days, samples were checked for mortality.

Assay [3] deals with Frankliniella occidentalis (Western Flower Thrips). Description: Activity against Frankliniella occidentalis (western flower thrips), leaf disc, feeding/residual contact, preventative. The settings on record: foliar, 168 h, sunflower leaf discs sprayed, mixed-age population, 7 DAT. On the procedure: Activity Against Frankliniella occidentalis (Western Flower Thrips)
(Mixed Population, Feeding/Residual Contact Activity, Preventative)
Sunflower leaf discs are placed on agar in a 24-well microtiter plate and sprayed with test solutions. After drying, the leaf discs are infested with a Frankliniella population of mixed ages. After an incubation period of 7 DAT, samples are checked for mortality and special effects (e.g. phytotoxicity).

SMILES strings stand for the structures.

In the case of `c1cncc(-n2cc(-c3ccc4c(n3)-c3ncncc3CC4)cn2)c1` [Compound 1.001, 9-[1-(3-pyridyl)pyrazol-4-yl]-5,6-dihydropyrido[3,2-h]quinazoline], the mortality at 200 ppm in assay [1] and in assay [2] was above 80% throughout.

In the case of `c1cncc(-n2cc(-c3ccc4c(n3)-c3n[nH]cc3CC4)cn2)c1` [Compound 1.002, 8-[1-(3-pyridyl)pyrazol-4-yl]-4,5-dihydro-2H-pyrazolo[4,3h]quinoline], the mortality at 200 ppm in assay [1] and in assay [2] was above 80% each time.

With `CN1c2ccc(-c3cnn(-c4cccnc4)c3)nc2-c2ncncc2S1(=O)=O` [Compound 1.003, 9-methyl-6-(1-pyridin-3-yl-1H-pyrazol-4-yl)-9H-10-thia-2,4,5,9-tetraaza-phenanthrene 10,10-dioxide], the mortality at 200 ppm in assay [2] and in assay [3] was above 80% each time.

With `CN1c2ccc(-c3cnn(-c4cccnc4)c3)nc2-c2[nH]ncc2S1(=O)=O` [Compound 1.004, 5-methyl-8-(1-pyridin-3-yl-1H-pyrazol-4-yl)-1,5-dihydro-4-thia-1,2,5,9-tetraaza-cyclopenta[a]naphthalene 4,4-dioxide], the mortality at 200 ppm in assay [1], in assay [2] and in assay [3] was above 80% in each case.
